From patent US11311542B2, “Inhibitors of cyclin dependent kinase 7 (CDK7)” (Syros Pharmaceuticals, Inc., priority 2018, dated 2022)

What was measured:
[1] = target: CDK12 (aa686-1082)/Cyclin K complex (Homo sapiens, UniProt Q9NYV4); assay: CDK12 kinase inhibition assay (Caliper/LabChip EZ Reader)
Method: (§1) Compounds described herein were assayed for inhibition of CDK7, CDK9, CDK12, and CDK2 activity at Biortus Biosciences (Jiangyin, Jiangsu Province, P.R. of China) using kinase assays for each CDK developed with a Caliper/LabChip EZ Reader (Perkin Elmer, Waltham, Mass.).
(§2) Furthermore, the CDK9 inhibition assay used CDK9/Cyclin T1 complex (8 nM) and “5-FAM-CDK9tide” peptide substrate (2 μM, synthesized fluorophore-labeled peptide with the following sequence: 5-FAM-GSRTPMY-NH2 (SEQ ID NO:2) where 5-FAM is defined above and NH2 signifies a C-terminal amide) with 10 mM MgCl2 in the buffer composition listed above. The CDK12 inhibition assay used CDK12 (aa686-1082)/Cyclin K complex (50 nM) and “5-FAM-CDK9tide” (2 μM) as defined above, with 2 mM MgCl2 in the buffer composition above. Additionally, the CDK2 inhibition assay used CDK2/Cyclin E1 complex (0.5 nM) and “5-FAM-CDK7tide” (2 μM; defined above) with 2 mM MgCl2 in the buffer composition above.
(§3) The incubation period at 27° C. for each CDK inhibition assay was chosen such that the fraction of phosphorylated peptide product produced in each assay, relative to the total peptide concentration, was approximately 20% (±5%) for the uninhibited kinase (35 min. for CDK7, 35 min. for CDK2, 3 hr. for CDK12, 15 min. for CDK9).

[2] = tested on: COV504 cells; assay: Inhibition of cell proliferation (CyQUANT Direct), COV504; format: cell-based, human; settings: Homo sapiens, COV504, 72-hour
[3] = target: CDK9/Cyclin T1 complex (Homo sapiens, UniProt P50750); assay: CDK9 kinase inhibition assay (Caliper/LabChip EZ Reader)
Chain of CDK9/Cyclin T1 complex (P50750 whole entry): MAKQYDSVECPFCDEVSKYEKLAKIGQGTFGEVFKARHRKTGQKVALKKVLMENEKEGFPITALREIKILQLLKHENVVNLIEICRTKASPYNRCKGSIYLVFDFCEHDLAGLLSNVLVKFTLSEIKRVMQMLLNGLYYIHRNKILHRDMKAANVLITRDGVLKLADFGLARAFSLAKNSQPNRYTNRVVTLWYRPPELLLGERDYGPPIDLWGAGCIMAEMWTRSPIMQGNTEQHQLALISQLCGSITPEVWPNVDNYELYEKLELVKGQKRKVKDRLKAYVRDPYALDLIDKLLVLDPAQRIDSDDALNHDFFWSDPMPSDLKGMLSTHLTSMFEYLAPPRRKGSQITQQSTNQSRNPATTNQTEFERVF
Chain of CDK9/Cyclin T1 complex (O60563 whole entry partner): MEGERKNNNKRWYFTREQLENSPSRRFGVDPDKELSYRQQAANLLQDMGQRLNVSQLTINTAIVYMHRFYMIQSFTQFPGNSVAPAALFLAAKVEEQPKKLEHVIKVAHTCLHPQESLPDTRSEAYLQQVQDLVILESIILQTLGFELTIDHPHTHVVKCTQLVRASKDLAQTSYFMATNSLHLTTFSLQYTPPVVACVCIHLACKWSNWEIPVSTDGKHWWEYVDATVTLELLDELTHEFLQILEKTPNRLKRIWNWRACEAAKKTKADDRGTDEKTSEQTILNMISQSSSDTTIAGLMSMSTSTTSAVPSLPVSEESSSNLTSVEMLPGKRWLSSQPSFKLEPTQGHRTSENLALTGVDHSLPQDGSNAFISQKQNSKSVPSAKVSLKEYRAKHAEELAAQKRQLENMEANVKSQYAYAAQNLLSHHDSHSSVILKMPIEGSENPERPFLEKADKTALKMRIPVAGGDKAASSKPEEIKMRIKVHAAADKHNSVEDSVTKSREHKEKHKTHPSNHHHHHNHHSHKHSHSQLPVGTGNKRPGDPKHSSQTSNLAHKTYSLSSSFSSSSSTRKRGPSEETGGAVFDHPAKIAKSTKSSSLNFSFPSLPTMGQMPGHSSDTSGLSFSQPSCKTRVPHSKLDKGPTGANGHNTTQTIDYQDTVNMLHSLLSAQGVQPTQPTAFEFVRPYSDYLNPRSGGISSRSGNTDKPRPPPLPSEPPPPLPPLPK
Method: as §1, §2, §3

[4] = tested on: MB453 cells; assay: Inhibition of cell proliferation (CyQUANT Direct), MB453; format: cell-based, human; settings: Homo sapiens, MB453, 72-hour
[5] = tested on: HCC70 cells; assay: Inhibition of cell proliferation (CyQUANT Direct), HCC70; format: cell-based, human; settings: Homo sapiens, HCC70, 72-hour
[6] = target: CDK7/Cyclin H/MAT1 complex (Homo sapiens, UniProt P50613); assay: CDK7 kinase inhibition assay (Caliper/LabChip EZ Reader)
Chain of CDK7/Cyclin H/MAT1 complex (P50613 whole entry): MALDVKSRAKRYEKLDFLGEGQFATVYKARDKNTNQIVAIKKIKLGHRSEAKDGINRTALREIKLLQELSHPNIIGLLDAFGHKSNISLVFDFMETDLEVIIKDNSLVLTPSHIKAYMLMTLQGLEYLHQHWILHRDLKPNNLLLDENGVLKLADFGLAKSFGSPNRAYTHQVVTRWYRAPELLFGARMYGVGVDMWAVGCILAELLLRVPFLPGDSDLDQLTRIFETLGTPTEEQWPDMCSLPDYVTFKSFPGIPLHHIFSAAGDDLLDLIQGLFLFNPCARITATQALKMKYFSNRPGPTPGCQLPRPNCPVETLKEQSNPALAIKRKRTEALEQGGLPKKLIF
Chain of CDK7/Cyclin H/MAT1 complex (P51946 whole entry partner): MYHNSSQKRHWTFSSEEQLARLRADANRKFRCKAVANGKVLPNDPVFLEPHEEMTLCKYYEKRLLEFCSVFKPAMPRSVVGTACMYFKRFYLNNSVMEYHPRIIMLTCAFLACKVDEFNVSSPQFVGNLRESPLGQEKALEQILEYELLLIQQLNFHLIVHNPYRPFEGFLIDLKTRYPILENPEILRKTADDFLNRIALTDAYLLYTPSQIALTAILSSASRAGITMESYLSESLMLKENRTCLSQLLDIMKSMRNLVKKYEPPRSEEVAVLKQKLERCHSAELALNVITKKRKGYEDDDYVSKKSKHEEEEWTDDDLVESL
Chain of CDK7/Cyclin H/MAT1 complex (P51948 whole entry partner): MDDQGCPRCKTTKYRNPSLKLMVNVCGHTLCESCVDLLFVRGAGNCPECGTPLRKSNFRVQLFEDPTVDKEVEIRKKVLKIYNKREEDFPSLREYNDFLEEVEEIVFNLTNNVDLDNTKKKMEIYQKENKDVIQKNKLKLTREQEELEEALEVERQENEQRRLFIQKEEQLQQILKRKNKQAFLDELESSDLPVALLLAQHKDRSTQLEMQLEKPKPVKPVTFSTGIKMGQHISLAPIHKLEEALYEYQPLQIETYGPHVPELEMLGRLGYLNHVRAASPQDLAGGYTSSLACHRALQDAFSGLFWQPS

[7] = target: CDK2/Cyclin E1 complex (Homo sapiens, UniProt P24941); assay: CDK2 kinase inhibition assay (Caliper/LabChip EZ Reader)
Method: as §1, §2, §3

[8] = tested on: COV318 cells; assay: Inhibition of cell proliferation (CyQUANT Direct), COV318; format: cell-based, human; settings: Homo sapiens, COV318, 72-hour

Chain of CDK12 (aa686-1082)/Cyclin K complex (Q9NYV4 686-1082): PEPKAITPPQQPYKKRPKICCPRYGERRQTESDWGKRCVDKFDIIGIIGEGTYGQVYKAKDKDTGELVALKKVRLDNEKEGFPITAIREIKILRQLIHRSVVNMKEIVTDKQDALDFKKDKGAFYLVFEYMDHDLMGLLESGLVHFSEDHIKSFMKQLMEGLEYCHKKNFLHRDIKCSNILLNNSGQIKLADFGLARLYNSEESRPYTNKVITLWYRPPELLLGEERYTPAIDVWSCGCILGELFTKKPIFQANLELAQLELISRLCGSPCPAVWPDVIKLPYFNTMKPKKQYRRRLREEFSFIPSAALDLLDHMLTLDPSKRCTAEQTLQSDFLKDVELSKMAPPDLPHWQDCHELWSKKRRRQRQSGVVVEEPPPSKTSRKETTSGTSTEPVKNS
Chain of CDK12 (aa686-1082)/Cyclin K complex (O75909 whole entry partner, the tested form may be a part): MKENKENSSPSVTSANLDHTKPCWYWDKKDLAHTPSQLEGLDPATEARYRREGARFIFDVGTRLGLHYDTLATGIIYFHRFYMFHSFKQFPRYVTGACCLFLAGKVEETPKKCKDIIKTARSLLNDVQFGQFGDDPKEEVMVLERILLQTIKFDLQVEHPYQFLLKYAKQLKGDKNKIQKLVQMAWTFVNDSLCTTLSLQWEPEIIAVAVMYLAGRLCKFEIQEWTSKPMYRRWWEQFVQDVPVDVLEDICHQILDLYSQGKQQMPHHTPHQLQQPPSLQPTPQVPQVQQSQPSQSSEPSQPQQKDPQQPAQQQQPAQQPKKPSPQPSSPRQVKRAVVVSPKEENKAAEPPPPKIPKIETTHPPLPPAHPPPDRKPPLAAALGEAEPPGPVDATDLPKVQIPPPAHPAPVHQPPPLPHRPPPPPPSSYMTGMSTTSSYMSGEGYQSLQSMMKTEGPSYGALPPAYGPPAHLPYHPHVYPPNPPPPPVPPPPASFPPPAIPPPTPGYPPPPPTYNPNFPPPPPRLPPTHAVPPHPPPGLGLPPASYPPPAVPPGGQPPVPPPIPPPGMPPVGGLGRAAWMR

SMILES	IC50 [1]	IC50 [2]	IC50 [3]	IC50 [4]	IC50 [5]	IC50 [6]	IC50 [7]	IC50 [8]
Cc1nc(-c2ccc3c(-c4nc(N[C@H]5CCCNC5)ncc4C(F)(F)F)c[nH]c3n2)no1 [Compound 139, 4-[6-(5-methyl-1,2,4-oxadiazol-3-yl)-1H-pyrrolo[2,3-b]pyridin-3-yl]-N-[(3S)-3-piperidyl]-5-(trifluoromethyl)pyrimidin-2-amine]	> 0.5 µM	< 0.1 µM	> 0.5 µM	< 0.1 µM	< 0.1 µM	< 0.03 µM	> 0.5 µM	> 1 µM
Cc1nnc(C)n1-c1ccc2c(-c3nc(N[C@H]4CCCNC4)ncc3C(F)(F)F)c[nH]c2n1 [Compound 140, 4-[6-(3,5-dimethyl-1,2,4-triazol-4-yl)-1H-pyrrolo[2,3-b]pyridin-3-yl]-N-[(3S)-3-piperidyl]-5-(trifluoromethyl)pyrimidin-2-amine]	> 0.5 µM	0.1 to 0.5 µM	> 0.5 µM	0.5 to 1 µM	> 1 µM	< 0.03 µM	> 0.5 µM	> 1 µM
Cc1nnnn1-c1ccc2c(-c3nc(N[C@H]4CCCNC4)ncc3C(F)(F)F)c[nH]c2n1 [Compound 141, 4-[6-(5-methyltetrazol-1-yl)-1H-pyrrolo[2,3-b]pyridin-3-yl]-N-[(3S)-3-piperidyl]-5-(trifluoromethyl)pyrimidin-2-amine]	> 0.5 µM	< 0.1 µM	> 0.5 µM	0.1 to 0.5 µM	0.1 to 0.5 µM	< 0.03 µM	> 0.5 µM	0.1 to 0.5 µM
Cc1nsc(-c2ccc3c(-c4nc(N[C@H]5CCCNC5)ncc4C(F)(F)F)c[nH]c3n2)n1 [Compound 142]	> 0.5 µM	< 0.1 µM	> 0.5 µM	< 0.1 µM	< 0.1 µM	< 0.03 µM	> 0.5 µM	0.5 to 1 µM
Cc1noc(C)c1-c1ccc2c(-c3nc(N[C@H]4CCC(C)(C)NC4)ncc3C(F)(F)F)n[nH]c2n1 [Compound 144]	> 0.5 µM	< 0.1 µM	> 0.5 µM	< 0.1 µM	< 0.1 µM	< 0.03 µM	> 0.5 µM	> 1 µM
CNC(=O)[C@H]1CNC[C@@H](Nc2ncc(C(F)(F)F)c(-c3c[nH]c4nc(-c5nccs5)ccc34)n2)C1 [Compound 145, (3R, 5S)—N-methyl-5-[[4-(6-thiazol-2-yl-1H-pyrrolo[2,3-b]pyridin-3-yl)-5-(trifluoromethyl)pyrimidin-2-yl]amino]piperidine-3-carboxamide]	> 0.5 µM	0.1 to 0.5 µM	> 0.5 µM	0.1 to 0.5 µM	0.1 to 0.5 µM	< 0.03 µM	> 0.5 µM	> 1 µM
Cc1noc(C)c1-c1ccc2c(-c3nc(N[C@@H]4CNC[C@H](O)C4)ncc3C(F)(F)F)n[nH]c2n1 [Compound 146, (3R, 5S)-5-[[4-[6-(3,5-dimethylisoxazol-4-yl)-1H-pyrazolo[3,4-b]pyridin-3-yl]-5-(trifluoromethyl)pyrimidin-2-yl]amino]piperidin-3-ol]	> 0.5 µM	0.1 to 0.5 µM	> 0.5 µM	0.1 to 0.5 µM	0.5 to 1 µM	< 0.03 µM	> 0.5 µM	> 1 µM
Cc1nocc1-c1ccc2c(-c3nc(N[C@@H]4CNC[C@H](O)C4)ncc3C(F)(F)F)c[nH]c2n1 [Compound 148, (3R,5S)-5-[[4-[6-(3-methylisoxazol-4-yl)-1H-pyrrolo[2,3-b]pyridin-3-yl]-5-(trifluoromethyl)pyrimidin-2-yl]amino]piperidin-3-ol]	> 0.5 µM	0.5 to 1 µM	> 0.5 µM	0.1 to 0.5 µM	> 1 µM	< 0.03 µM	> 0.5 µM	> 1 µM
Cc1nscc1-c1ccc2c(-c3nc(N[C@H]4CCCNC4)ncc3C(F)(F)F)c[nH]c2n1 [Compound 149]	> 0.5 µM	< 0.1 µM	> 0.5 µM	< 0.1 µM	< 0.1 µM	< 0.03 µM	> 0.5 µM	< 0.1 µM
C[C@H]1CC[C@H](Nc2ncc(C(F)(F)F)c(-c3c[nH]c4nc(-c5cnnn5C)ccc34)n2)CN1 [Compound 150, N-[(3S,6S)-6-methyl-3-piperidyl]-4-[6-(3-methyltriazol-4-yl)-1H-pyrrolo[2,3-b]pyridin-3-yl]-5-(trifluoromethyl)pyrimidin-2-amine]	> 0.5 µM	< 0.1 µM	> 0.5 µM	< 0.1 µM	0.1 to 0.5 µM	< 0.03 µM	> 0.5 µM	0.1 to 0.5 µM
C[C@@H]1CC[C@@H](Nc2ncc(C(F)(F)F)c(-c3c[nH]c4nc(-c5cnnn5C)ccc34)n2)CN1 [Compound 151, N-[(3R,6R)-6-methyl-3-piperidyl]-4-[6-(3-methyltriazol-4-yl)-1H-pyrrolo[2,3-b]pyridin-3-yl]-5-(trifluoromethyl)pyrimidin-2-amine]	> 0.5 µM	> 1 µM	> 0.5 µM	0.5 to 1 µM	> 1 µM	< 0.03 µM	> 0.5 µM	> 1 µM
Cc1noc(C)c1-c1ccc2c(-c3nc(N[C@@H]4CC[C@@H](C)NC4)ncc3C(F)(F)F)n[nH]c2n1 [Compound 153, 4-[6-(3,5-dimethylisoxazol-4-yl)-1H-pyrazolo[3,4-b]pyridin-3-yl]-N-[(3R,6R)-6-methyl-3-piperidyl]-5-(trifluoromethyl)pyrimidin-2-amine]	> 0.5 µM	< 0.1 µM	> 0.5 µM	< 0.1 µM	< 0.1 µM	< 0.03 µM	> 0.5 µM	< 0.1 µM
Cc1nnc(-c2ccc3c(-c4nc(N[C@H]5CC[C@H](C)NC5)ncc4C(F)(F)F)c[nH]c3n2)s1 [Compound 154, N-[(3S,6S)-6-methyl-3-piperidyl]-4-[6-(5-methyl-1,3,4-thiadiazol-2-yl)-1H-pyrrolo[2,3-b]pyridin-3-yl]-5-(trifluoromethyl)pyrimidin-2-amine]	> 0.5 µM	0.1 to 0.5 µM	> 0.5 µM	> 1 µM	0.1 to 0.5 µM	< 0.03 µM	> 0.5 µM	> 1 µM
Cc1nnc(-c2ccc3c(-c4nc(N[C@H]5CCCNC5)ncc4C(F)(F)F)c[nH]c3n2)s1 [Compound 155, 4-[6-(5-methyl-1,3,4-thiadiazol-2-yl)-1H-pyrrolo[2,3-b]pyridin-3-yl]-N-[(3S)-3-piperidyl]-5-(trifluoromethyl)pyrimidin-2-amine]	> 0.5 µM	< 0.1 µM	> 0.5 µM	< 0.1 µM	< 0.1 µM	< 0.03 µM	> 0.5 µM	< 0.1 µM
Cc1nocc1-c1ccc2c(-c3nc(N[C@H]4CC[C@H](C)NC4)ncc3C(F)(F)F)c[nH]c2n1 [Compound 156, 4-[6-(3-methylisoxazol-4-yl)-1H-pyrrolo[2,3-b]pyridin-3-yl]-N-[(3S,6S)-6-methyl-3-piperidyl]-5-(trifluoromethyl)pyrimidin-2-amine]	> 0.5 µM	0.1 to 0.5 µM	> 0.5 µM	0.1 to 0.5 µM	0.5 to 1 µM	< 0.03 µM	> 0.5 µM	> 1 µM
Cc1nocc1-c1ccc2c(-c3nc(N[C@@H]4CC[C@@H](C)NC4)ncc3C(F)(F)F)c[nH]c2n1 [Compound 157, 4-[6-(3-methylisoxazol-4-yl)-1H-pyrrolo[2,3-b]pyridin-3-yl]-N-[(3R,6R)-6-methyl-3-piperidyl]-5-(trifluoromethyl)pyrimidin-2-amine]	> 0.5 µM	< 0.1 µM	> 0.5 µM	< 0.1 µM	< 0.1 µM	< 0.03 µM	> 0.5 µM	< 0.1 µM
Cc1nnc(-c2ccc3c(-c4nc(N[C@@H]5CC[C@@H](C)NC5)ncc4C(F)(F)F)c[nH]c3n2)s1 [Compound 158, N-[(3R,6R)-6-methyl-3-piperidyl]-4-[6-(5-methyl-1,3,4-thiadiazol-2-yl)-1H-pyrrolo[2,3-b]pyridin-3-yl]-5-(trifluoromethyl)pyrimidin-2-amine]	> 0.5 µM	< 0.1 µM	> 0.5 µM	< 0.1 µM	< 0.1 µM	< 0.03 µM	> 0.5 µM	0.1 to 0.5 µM
Cc1nsc(-c2ccc3c(-c4nc(N[C@@H]5CC[C@@H](C)NC5)ncc4C(F)(F)F)c[nH]c3n2)n1 [Compound 159, N-[(3R,6R)-6-methyl-3-piperidyl]-4-[6-(3-methyl-1,2,4-thiadiazol-5-yl)-1H-pyrrolo[2,3-b]pyridin-3-yl]-5-(trifluoromethyl)pyrimidin-2-amine]	> 0.5 µM	< 0.1 µM	> 0.5 µM	< 0.1 µM	< 0.1 µM	< 0.03 µM	> 0.5 µM	> 1 µM
Cc1nocc1-c1ccc2c(-c3nc(N[C@H]4CCC(C)(C)NC4)ncc3C(F)(F)F)n[nH]c2n1 [Compound 160, (S)—N-(6,6-dimethylpiperidin-3-yl)-4-(6-(3-methylisoxazol-4-yl)-1H-pyrazolo[3,4-b]pyridin-3-yl)-5-(trifluoromethyl)pyrimidin-2-amine]	> 0.5 µM	0.1 to 0.5 µM	> 0.5 µM	0.1 to 0.5 µM	> 1 µM	< 0.03 µM	> 0.5 µM	> 1 µM
